Test results from US11274332B2, “Methods of administering 3,4-diaminopyridine” (SERB SA, priority 2011, dated 2022).

Test: Food-effect crossover study, adverse events after single 20 mg amifampridine phosphate in healthy subjects (Examples 10, 11)
Format: in vivo
Method: This was a randomized, open-label, 2-treatment, 2-period crossover study with 44 completed subjects to assess the safety, tolerability, and the effect of food on the relative bioavailability of a single dose of amifampridine phosphate.
Safety was evaluated for all subjects who take at least one dose of 3,4-DAP. Safety was evaluated by recording the incidence of adverse events (AEs), physical examination, vital signs, concomitant medications, clinical laboratory assessments, and 12-lead electrocardiogram (ECG).
Analysis for the following safety parameters was carried out on the Safety Population: AEs which included all AEs, AEs by severity, drug-related AEs, deaths, SAEs, AEs leading to study discontinuation, and most frequent AEs, standard clinical laboratory tests, vital signs, ECG measurements, routine physical examinations, and prior and concomitant medications. The cut-off for frequency of AEs reported was determined based on the data. No formal statistical testing was performed for the safety analyses; only descriptive statistics were provided. Appropriate descriptive statistics for the safety data were determined using SAS Version 9.2.
AEs were coded according to the Medical Dictionary for Regulatory Activities (MedDRA; Version 13.0). […] The occurrence of AEs was assessed continuously from the time the subject signed the VID and consent. The reporting period for non-serious AEs was from the first dose to the final study visit. The investigator determined the severity of each event and the relationship of an AE to the IP and recorded it on the source documents and AE CRF. The nature, time of onset, duration, severity, and relationship to study drug was documented, including documentation of investigator assessment and review. All events were assessed to determine if the AE was serious.
The Investigator determined the severity of each event and the event was recorded on the source documents and AE CRF. A coding of “mild” meant there was no limitation of usual activities, “moderate” meant there was some limitation of usual activities, “severe” meant there was an inability to carry out usual activities.
The reporting period for AEs that met the criteria of an SAE began from the time of signing the VID and consent form through follow-up or early termination. […] Clinical Laboratory Assessments

In the case of Nc1ccncc1N.O=P(O)(O)O [amifampridine phosphate, 3,4-diaminopyridine phosphate], the “Paraesthesia, drug-related AE: subjects” value (Male N=31) is reported as 6, the “Possibly or probably related AEs, Mild: % of subjects” value (Male N=31) is reported as 58% and the “Possibly or probably related AEs, Mild: events” value (Male N=31) is reported as 51. For the same molecule, the “Possibly or probably related AEs, Mild: subjects” value (Male N=31) was 18, the “Possibly or probably related AEs, Moderate: % of subjects” value (Male N=31) was “(0%) [0]” and the “Possibly or probably related AEs, Moderate: events” value (Male N=31) was “(0%) [0]”. For the same molecule, the “Possibly or probably related AEs, Moderate: subjects” value (Male N=31) was 0, the “Possibly or probably related AEs, Severe: % of subjects” value (Male N=31) was “(0%) [0]” and the “Possibly or probably related AEs, Severe: events” value (Male N=31) was “(0%) [0]”. For the same molecule, the “Possibly or probably related AEs, Severe: subjects” value (Male N=31) was 0, the “Possibly or probably related AEs, Total: % of subjects” value (Male N=31) was 58% and the “Possibly or probably related AEs, Total: events” value (Male N=31) was 51. The “Possibly or probably related AEs, Total: subjects” value (Male N=31) was 18, the “Serious adverse events: % of subjects” value (Male N=31) was “(0%) [0]” and the “Serious adverse events: events” value (Male N=31) was “(0%) [0]”. The “Serious adverse events: subjects” value (Male N=31) was 0, the “Skin and Subcutaneous Tissue Disorders Total, drug-related AE: % of subjects” value (Male N=31) was 3% and the “Skin and Subcutaneous Tissue Disorders Total, drug-related AE: events” value (Male N=31) was 1. The “Skin and Subcutaneous Tissue Disorders Total, drug-related AE: subjects” value (Male N=31) was 1, the “Vascular Disorders Total, drug-related AE: % of subjects” value (Male N=31) was “(0%) [0]” and the “Vascular Disorders Total, drug-related AE: events” value (Male N=31) was “(0%) [0]”. For the same molecule, the “Vascular Disorders Total, drug-related AE: subjects” value (Male N=31) was 0, the “paraesthesias among the 93 drug-related AEs: % of events” value (Overall) was 54% and the “paraesthesias among the 93 drug-related AEs: events” value (Overall) was 50. For the same molecule, the “Abdominal Pain Upper, drug-related AE: % of subjects” value (Overall N=47) was 4%, the “Abdominal Pain Upper, drug-related AE: events” value (Overall N=47) was 2 and the “Abdominal Pain Upper, drug-related AE: subjects” value (Overall N=47) was 2. The “Abdominal Pain, drug-related AE: % of subjects” value (Overall N=47) was 6%, the “Abdominal Pain, drug-related AE: events” value (Overall N=47) was 3 and the “Abdominal Pain, drug-related AE: subjects” value (Overall N=47) was 3. For the same molecule, the “Abdominal Tenderness, drug-related AE: % of subjects” value (Overall N=47) was 2%, the “Abdominal Tenderness, drug-related AE: events” value (Overall N=47) was 1 and the “Abdominal Tenderness, drug-related AE: subjects” value (Overall N=47) was 1. For the same molecule, the “Acne, drug-related AE: % of subjects” value (Overall N=47) was 2%, the “Acne, drug-related AE: events” value (Overall N=47) was 1 and the “Acne, drug-related AE: subjects” value (Overall N=47) was 1. For the same molecule, the “All treatment emergent AEs, Mild: % of subjects” value (Overall N=47) was 64%, the “All treatment emergent AEs, Mild: events” value (Overall N=47) was 98 and the “All treatment emergent AEs, Mild: subjects” value (Overall N=47) was 30. The “All treatment emergent AEs, Moderate: % of subjects” value (Overall N=47) was 4%, the “All treatment emergent AEs, Moderate: events” value (Overall N=47) was 2 and the “All treatment emergent AEs, Moderate: subjects” value (Overall N=47) was 2. For the same molecule, the “All treatment emergent AEs, Severe: % of subjects” value (Overall N=47) was 2%, the “All treatment emergent AEs, Severe: events” value (Overall N=47) was 1 and the “All treatment emergent AEs, Severe: subjects” value (Overall N=47) was 1. For the same molecule, the “All treatment emergent AEs, Total: events” value (Overall N=47) was 101, the “All treatment emergent AEs, Total: subjects” value (Overall N=47) was 31 and the “Constipation, drug-related AE: % of subjects” value (Overall N=47) was 2%. The “Constipation, drug-related AE: events” value (Overall N=47) was 1, the “Constipation, drug-related AE: subjects” value (Overall N=47) was 1 and the “Diarrhoea, drug-related AE: % of subjects” value (Overall N=47) was 2%. The “Diarrhoea, drug-related AE: events” value (Overall N=47) was 1, the “Diarrhoea, drug-related AE: subjects” value (Overall N=47) was 1 and the “Discontinued due to adverse events: % of subjects” value (Overall N=47) was 2%. For the same molecule, the “Discontinued due to adverse events: events” value (Overall N=47) was 1, the “Discontinued due to adverse events: subjects” value (Overall N=47) was 1 and the “Dizziness, drug-related AE: % of subjects” value (Overall N=47) was 11%. For the same molecule, the “Dizziness, drug-related AE: events” value (Overall N=47) was 7, the “Dizziness, drug-related AE: subjects” value (Overall N=47) was 5 and the “Dysgeusia, drug-related AE: % of subjects” value (Overall N=47) was 4%. The “Dysgeusia, drug-related AE: events” value (Overall N=47) was 3 and the “Dysgeusia, drug-related AE: subjects” value (Overall N=47) was 2.
